Assay results as given in patent US20250025438A1, “Derivative of aspartic acid and use thereof in treatment of metabolic diseases such as hepatic fibrosis and non-alcoholic hepatitis” (SHENZHEN JINGTAI TECHNOLOGY CO., LTD., priority 2021, published 2025).

What was measured:
Type in all cases: cell-based
COL1A2 = experiment: In vitro efficacy in semi-activated LX2 cells, qPCR: COL1A2; conditions: Homo sapiens, LX-2, 48 hours, Q-PCR, read-out: COL1A2 mRNA inhibition rate
collagen 1 = experiment: In-vitro liver fibrosis model in activated LX2 cells (TGFβ1), qPCR: collagen 1; conditions: LX-2 cells activated with TGFβ1 (5 ng/mL), 25 μM compound, 24 hours, real-time PCR
Procedure: (§1) This experiment was performed strictly in accordance with the instructions of the Total RNA Kit. The steps were as follows (note: this experiment was performed on ice throughout the entire process, and special RNase-free tips were used throughout the entire process): • 1) The 12-well cell culture plate was taken out from the incubator, the cell culture medium was discarded, the cells were washed twice with 1 mL of 1×PBS, and a negative pressure suction device was used to fully remove PBS; • 2) 350 μL of TRK Lysis Buffer mixture/well was prepared as needed (mixture preparation method: 1 mL of TRKLysis Buffer+20 μL of β-mercaptoethanol), vortexed and mixed well. 350 μL was added to each well of the 12-well cell culture plate, and allowed to stand at room temperature for 5 minutes to fully lyse the cells; • 3) 70% ethanol/well was prepared as needed, vortexed and mixed well. 350 μL was added to each well of the 12-well cell culture plate, mixed well by shaking, and transferred to the spin column (spin column+collection tube were assembled); • 4) Centrifugation was performed at 4° C., 12000 g for 60 sec. […]

collagen 3 = experiment: In-vitro liver fibrosis model in activated LX2 cells (TGFβ1), qPCR: collagen 3; conditions: LX-2 cells activated with TGFβ1 (5 ng/mL), 25 μM compound, 24 hours, real-time PCR
Procedure: as §1

α-SMA = experiment: In-vitro liver fibrosis model in activated LX2 cells (TGFβ1), qPCR: α-SMA; conditions: LX-2 cells activated with TGFβ1 (5 ng/mL), 25 μM compound, 24 hours, real-time PCR
Procedure: as §1

| SMILES | inhibition at 50 µM (COL1A2) [%] | collagen 1 gene expression inhibition rate (collagen 1) | collagen 3 gene expression inhibition rate (collagen 3) | α-SMA gene expression inhibition rate (α-SMA) |
| --- | --- | --- | --- | --- |
| COC(=O)[C@@H](N)CC(=O)O [Compound 4] | 1 to 10 | A (A represented that the inhibition rate was 25% or above) | A (A represented that the inhibition rate was 25% or above) | B (B represented that the inhibition rate was 10% to 25%) |
| COC(=O)C[C@H](N)C(=O)O [Compound 6] | 1 to 10 | B (B represented that the inhibition rate was 10% to 25%) | A (A represented that the inhibition rate was 25% or above) | A (A represented that the inhibition rate was 25% or above) |
